From ChEMBL document CHEMBL3991601, “The target landscape of clinical kinase drugs” (Science, 2017)
The source made the active and inactive calls.

Legend:
Myosin-10 = Myosin-10 (Homo sapiens, UniProt P35580)
Actin-related protein 2 = Actin-related protein 2 (Homo sapiens, UniProt P61160)
[1] = target: Cyclin-dependent kinase 7 (Homo sapiens, UniProt P50613)
[2] = target: DnaJ homolog subfamily A member 1 (Homo sapiens, UniProt P31689)
[3] = target: Inosine-5'-monophosphate dehydrogenase 2 (Homo sapiens, UniProt P12268)
[4] = target: Casein kinase I isoform epsilon (Homo sapiens, UniProt P49674)
[5] = target: Serine/threonine-protein kinase B-raf (Homo sapiens, UniProt P15056)
[6] = target: T1, Glycogen phosphorylase, liver form (Homo sapiens, UniProt P06737); type: subcellular, K-562, COLO 205, SK-N-BE(2) and MV-4-11, Cell lysate; settings: read-out: Kd apparent
T1 sequence (P06737 whole entry): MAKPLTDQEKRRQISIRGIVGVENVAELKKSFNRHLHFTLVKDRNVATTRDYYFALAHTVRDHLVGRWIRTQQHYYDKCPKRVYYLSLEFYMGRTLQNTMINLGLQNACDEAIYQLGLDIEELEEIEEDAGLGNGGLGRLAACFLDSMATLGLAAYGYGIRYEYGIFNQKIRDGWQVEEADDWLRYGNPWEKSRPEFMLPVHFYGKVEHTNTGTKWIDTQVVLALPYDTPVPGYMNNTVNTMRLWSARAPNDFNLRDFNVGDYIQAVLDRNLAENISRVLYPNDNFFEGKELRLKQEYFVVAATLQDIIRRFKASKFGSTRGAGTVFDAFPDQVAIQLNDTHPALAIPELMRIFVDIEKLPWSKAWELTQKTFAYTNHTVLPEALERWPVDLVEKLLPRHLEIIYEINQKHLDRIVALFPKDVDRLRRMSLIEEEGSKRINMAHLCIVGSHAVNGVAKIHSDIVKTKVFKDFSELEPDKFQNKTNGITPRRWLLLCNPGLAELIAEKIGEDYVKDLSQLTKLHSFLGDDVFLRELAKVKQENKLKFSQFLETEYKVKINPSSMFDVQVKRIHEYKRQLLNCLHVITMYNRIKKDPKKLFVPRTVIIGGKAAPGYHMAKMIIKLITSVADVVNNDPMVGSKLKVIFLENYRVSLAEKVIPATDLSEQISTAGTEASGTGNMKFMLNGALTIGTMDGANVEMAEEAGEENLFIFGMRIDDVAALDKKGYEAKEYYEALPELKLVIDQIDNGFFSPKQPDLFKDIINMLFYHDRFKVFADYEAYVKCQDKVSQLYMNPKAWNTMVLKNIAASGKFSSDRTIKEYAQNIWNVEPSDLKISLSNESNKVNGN

Aurora kinase B = Aurora kinase B (Homo sapiens, UniProt Q96GD4)
[7] = target: Tyrosine-protein kinase SYK (Homo sapiens, UniProt P43405)
[8] = target: Protein-tyrosine kinase 6 (Homo sapiens, UniProt Q13882)
[9] = target: T2, Serine/threonine-protein kinase Nek1 (Homo sapiens, UniProt Q96PY6)
T2 sequence (Q96PY6 whole entry): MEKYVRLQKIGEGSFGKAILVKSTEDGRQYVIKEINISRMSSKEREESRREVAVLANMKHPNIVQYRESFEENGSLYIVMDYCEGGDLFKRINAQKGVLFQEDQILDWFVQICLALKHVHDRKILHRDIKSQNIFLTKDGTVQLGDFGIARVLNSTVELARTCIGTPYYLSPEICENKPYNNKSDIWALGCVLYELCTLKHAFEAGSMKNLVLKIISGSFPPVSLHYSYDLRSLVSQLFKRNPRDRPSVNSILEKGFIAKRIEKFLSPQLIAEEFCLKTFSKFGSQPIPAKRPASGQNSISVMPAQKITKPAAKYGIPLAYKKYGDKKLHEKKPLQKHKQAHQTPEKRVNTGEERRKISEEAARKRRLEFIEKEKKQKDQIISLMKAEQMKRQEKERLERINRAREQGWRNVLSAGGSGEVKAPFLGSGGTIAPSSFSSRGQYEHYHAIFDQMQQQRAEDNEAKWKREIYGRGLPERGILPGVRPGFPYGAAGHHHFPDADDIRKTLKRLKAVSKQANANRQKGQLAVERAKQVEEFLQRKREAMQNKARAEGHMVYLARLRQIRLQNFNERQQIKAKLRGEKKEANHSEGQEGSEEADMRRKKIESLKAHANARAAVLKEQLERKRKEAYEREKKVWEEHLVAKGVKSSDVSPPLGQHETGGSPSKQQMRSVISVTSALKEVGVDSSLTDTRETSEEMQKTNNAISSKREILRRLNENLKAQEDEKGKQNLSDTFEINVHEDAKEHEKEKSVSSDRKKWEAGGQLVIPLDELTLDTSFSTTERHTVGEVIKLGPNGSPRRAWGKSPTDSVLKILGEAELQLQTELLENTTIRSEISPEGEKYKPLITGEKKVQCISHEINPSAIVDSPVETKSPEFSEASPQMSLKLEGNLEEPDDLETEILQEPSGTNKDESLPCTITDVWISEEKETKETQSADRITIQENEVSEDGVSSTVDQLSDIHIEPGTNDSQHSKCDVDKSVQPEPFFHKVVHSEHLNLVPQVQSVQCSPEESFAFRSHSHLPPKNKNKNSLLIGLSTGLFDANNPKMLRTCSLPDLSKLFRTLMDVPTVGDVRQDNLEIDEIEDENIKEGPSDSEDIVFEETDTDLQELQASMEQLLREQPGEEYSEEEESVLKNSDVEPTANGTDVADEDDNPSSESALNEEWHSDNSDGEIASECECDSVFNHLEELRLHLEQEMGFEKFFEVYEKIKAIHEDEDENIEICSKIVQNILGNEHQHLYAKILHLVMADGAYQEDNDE

[10] = target: S-adenosylmethionine synthase isoform type-2 (Homo sapiens, UniProt P31153)
[11] = target: Cyclin-dependent kinase 12 (Homo sapiens, UniProt Q9NYV4)
Note: in the data inactive means no Kd found up to 30 µM.

DnaJ homolog subfamily A member 1, sequence (P31689 whole entry): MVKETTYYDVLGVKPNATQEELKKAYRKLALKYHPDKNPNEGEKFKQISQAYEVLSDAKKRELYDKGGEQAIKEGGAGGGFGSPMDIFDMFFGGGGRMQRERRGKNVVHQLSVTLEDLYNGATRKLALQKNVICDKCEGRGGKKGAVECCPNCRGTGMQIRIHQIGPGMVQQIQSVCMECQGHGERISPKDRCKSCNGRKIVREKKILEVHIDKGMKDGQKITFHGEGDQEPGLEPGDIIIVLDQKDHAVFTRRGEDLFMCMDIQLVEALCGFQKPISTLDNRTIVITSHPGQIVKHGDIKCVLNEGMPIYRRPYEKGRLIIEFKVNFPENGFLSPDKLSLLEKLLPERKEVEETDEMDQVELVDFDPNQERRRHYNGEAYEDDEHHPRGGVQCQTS
S-adenosylmethionine synthase isoform type-2, sequence (P31153 whole entry, canonical isoform): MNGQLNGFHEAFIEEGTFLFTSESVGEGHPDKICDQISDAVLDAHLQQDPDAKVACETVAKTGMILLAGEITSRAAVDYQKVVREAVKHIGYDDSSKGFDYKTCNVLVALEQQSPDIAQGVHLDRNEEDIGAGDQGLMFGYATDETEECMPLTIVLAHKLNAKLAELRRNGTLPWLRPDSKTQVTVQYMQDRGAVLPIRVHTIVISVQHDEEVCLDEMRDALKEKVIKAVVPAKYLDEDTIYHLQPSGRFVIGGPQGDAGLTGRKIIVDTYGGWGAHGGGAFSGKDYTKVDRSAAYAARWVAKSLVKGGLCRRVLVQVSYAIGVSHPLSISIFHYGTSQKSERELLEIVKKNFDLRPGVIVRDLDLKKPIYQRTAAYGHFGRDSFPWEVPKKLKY
Myosin-10, sequence (P35580 whole entry): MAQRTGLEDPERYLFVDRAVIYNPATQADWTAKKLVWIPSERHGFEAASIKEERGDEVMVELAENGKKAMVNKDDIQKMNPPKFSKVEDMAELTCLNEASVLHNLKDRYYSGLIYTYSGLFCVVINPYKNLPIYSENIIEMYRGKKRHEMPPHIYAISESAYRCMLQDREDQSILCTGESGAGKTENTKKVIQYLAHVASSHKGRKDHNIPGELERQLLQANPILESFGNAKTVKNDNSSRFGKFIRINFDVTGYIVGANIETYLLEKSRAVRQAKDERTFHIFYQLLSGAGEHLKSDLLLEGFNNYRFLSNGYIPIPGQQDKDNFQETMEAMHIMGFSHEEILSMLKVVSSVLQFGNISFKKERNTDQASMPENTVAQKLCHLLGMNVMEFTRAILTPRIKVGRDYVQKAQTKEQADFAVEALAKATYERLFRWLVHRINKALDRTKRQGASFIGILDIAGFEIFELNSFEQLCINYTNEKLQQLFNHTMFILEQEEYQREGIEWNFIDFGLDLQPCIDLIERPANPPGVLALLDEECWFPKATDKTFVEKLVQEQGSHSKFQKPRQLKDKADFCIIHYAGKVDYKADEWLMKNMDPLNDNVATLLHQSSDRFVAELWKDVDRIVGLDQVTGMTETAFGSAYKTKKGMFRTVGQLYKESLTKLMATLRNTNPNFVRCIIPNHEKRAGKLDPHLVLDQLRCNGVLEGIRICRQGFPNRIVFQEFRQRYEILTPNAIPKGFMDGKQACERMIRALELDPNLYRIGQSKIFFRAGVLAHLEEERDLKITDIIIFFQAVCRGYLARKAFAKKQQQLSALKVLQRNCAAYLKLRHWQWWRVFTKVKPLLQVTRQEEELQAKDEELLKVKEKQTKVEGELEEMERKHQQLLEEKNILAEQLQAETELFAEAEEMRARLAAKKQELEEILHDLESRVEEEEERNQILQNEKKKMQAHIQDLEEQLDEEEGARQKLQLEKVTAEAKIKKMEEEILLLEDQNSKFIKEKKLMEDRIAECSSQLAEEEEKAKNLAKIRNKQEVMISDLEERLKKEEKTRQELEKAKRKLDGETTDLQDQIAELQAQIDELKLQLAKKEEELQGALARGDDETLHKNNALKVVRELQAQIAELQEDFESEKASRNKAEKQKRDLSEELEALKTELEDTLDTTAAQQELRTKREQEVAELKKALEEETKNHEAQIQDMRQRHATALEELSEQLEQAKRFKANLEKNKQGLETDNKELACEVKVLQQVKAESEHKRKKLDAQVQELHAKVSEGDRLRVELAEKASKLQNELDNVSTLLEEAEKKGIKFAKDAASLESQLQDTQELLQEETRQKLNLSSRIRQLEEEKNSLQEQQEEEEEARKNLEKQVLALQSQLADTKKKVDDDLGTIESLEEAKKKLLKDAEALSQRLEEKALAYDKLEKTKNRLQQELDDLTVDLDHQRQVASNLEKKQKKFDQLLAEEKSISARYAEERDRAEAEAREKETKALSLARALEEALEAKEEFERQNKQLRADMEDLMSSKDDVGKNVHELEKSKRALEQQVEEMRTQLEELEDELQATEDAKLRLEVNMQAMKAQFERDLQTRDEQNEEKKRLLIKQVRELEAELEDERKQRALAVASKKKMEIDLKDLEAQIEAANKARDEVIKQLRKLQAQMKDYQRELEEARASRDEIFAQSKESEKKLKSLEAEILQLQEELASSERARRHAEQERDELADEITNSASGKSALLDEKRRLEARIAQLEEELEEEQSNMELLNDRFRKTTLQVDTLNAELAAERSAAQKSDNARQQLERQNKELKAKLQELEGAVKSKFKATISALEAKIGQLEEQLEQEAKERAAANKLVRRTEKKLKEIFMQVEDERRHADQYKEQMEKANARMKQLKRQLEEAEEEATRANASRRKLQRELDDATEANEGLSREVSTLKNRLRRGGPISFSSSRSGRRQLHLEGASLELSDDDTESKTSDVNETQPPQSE
Casein kinase I isoform epsilon, sequence (P49674 whole entry, canonical isoform): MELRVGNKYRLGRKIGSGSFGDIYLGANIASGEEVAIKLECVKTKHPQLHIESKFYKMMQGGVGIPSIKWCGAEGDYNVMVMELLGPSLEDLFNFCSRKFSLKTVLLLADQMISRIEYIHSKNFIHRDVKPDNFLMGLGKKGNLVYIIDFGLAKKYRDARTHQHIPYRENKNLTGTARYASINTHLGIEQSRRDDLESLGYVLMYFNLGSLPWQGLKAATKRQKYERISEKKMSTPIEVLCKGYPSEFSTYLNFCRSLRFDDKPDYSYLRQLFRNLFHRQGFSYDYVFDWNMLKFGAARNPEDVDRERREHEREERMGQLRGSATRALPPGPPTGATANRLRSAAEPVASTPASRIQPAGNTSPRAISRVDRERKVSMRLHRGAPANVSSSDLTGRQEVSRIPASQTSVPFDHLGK
Protein-tyrosine kinase 6, sequence (Q13882 whole entry): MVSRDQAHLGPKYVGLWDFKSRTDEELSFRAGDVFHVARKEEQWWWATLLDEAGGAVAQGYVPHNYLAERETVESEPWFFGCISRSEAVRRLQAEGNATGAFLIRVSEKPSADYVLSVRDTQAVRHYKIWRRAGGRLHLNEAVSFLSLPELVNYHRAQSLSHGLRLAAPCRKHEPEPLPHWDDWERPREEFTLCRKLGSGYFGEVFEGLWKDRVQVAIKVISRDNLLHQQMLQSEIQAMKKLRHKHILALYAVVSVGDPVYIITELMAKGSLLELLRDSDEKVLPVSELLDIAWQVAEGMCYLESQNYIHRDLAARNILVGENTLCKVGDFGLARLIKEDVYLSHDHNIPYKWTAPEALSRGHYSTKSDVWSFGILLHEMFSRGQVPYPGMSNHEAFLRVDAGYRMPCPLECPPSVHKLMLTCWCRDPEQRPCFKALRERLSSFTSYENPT
Cyclin-dependent kinase 7, sequence (P50613 whole entry): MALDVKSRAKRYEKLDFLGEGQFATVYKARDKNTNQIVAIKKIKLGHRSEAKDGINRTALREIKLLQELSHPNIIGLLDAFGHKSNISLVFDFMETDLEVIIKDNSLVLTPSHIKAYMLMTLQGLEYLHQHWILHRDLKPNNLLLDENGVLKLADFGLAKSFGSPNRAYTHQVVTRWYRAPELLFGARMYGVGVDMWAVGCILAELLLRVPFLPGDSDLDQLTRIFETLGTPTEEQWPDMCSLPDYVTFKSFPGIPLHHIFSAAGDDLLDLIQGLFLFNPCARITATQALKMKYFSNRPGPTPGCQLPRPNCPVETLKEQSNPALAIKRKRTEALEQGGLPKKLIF
Serine/threonine-protein kinase B-raf, sequence (P15056 whole entry): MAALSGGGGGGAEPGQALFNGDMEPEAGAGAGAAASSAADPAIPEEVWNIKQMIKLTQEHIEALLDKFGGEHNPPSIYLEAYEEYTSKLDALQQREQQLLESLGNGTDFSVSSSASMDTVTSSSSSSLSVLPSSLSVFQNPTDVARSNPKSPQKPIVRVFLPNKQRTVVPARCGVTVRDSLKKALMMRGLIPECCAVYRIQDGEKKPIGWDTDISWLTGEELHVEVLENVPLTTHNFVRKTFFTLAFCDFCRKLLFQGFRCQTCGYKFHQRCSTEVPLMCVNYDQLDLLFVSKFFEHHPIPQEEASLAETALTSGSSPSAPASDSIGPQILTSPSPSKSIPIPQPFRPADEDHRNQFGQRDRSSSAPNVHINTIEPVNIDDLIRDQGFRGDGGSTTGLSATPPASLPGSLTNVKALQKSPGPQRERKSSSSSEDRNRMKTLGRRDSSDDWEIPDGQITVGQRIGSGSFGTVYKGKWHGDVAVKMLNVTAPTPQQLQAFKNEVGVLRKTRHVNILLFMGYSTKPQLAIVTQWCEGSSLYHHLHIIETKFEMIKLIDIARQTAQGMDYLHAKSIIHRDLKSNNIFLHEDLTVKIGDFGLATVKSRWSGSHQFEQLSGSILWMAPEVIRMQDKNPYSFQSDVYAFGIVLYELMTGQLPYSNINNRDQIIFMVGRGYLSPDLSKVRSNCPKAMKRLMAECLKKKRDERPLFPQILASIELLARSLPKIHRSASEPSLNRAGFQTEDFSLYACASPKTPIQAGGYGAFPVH

| Compound | Kd (Myosin-10) | Kd (Actin-related protein 2) | Kd [1] | Kd [2] | Kd [3] | Kd [4] | Kd [5] | Kd [6] | Kd (Aurora kinase B) | Kd [7] | Kd [8] | Kd [9] | Kd [10] | Kd [11] |
| --- | --- | --- | --- | --- | --- | --- | --- | --- | --- | --- | --- | --- | --- | --- |
| CN1CCN(CCOc2cc(OC3CCOCC3)c3c(Nc4c(Cl)ccc5c4OCO5)ncnc3c2)CC1 [SARACATINIB] | > 30 µM (inactive) | > 30 µM (inactive) | > 30 µM (inactive) | > 30 µM (inactive) | > 30 µM (inactive) | > 30 µM (inactive) | > 30 µM (inactive) | > 30 µM (inactive) | > 30 µM (inactive) | > 30 µM (inactive) | 0.566 µM | > 30 µM (inactive) | > 30 µM (inactive) | > 30 µM (inactive) |
| Cn1cc(-c2cnn3c(N)c(Br)c([C@@H]4CCCNC4)nc23)cn1 [SCH-900776] | > 30 µM (inactive) | > 30 µM (inactive) | > 30 µM (inactive) | > 30 µM (inactive) | > 30 µM (inactive) | > 30 µM (inactive) | > 30 µM (inactive) | > 30 µM (inactive) | > 30 µM (inactive) | > 30 µM (inactive) | > 30 µM (inactive) | > 30 µM (inactive) | > 30 µM (inactive) | > 30 µM (inactive) |
| CO[C@H]1C[C@@H]2CC[C@@H](C)[C@@](O)(O2)C(=O)C(=O)N2CCCC[C@H]2C(=O)O[C@H]([C@H](C)C[C@@H]2CC[C@@H](O)[C@H](OC)C2)CC(=O)[C@H](C)/C=C(\C)[C@@H](O)[C@@H](OC)C(=O)[C@H](C)C[C@H](C)/C=C/C=C/C=C/1C [SIROLIMUS] | > 30 µM (inactive) | > 30 µM (inactive) | > 30 µM (inactive) | > 30 µM (inactive) | > 30 µM (inactive) | > 30 µM (inactive) | > 30 µM (inactive) | > 30 µM (inactive) | > 30 µM (inactive) | > 30 µM (inactive) | > 30 µM (inactive) | > 30 µM (inactive) | > 30 µM (inactive) | > 30 µM (inactive) |
| CO[C@H]1C[C@@H]2CC[C@@H](C)[C@@](O)(O2)C(=O)C(=O)N2CCCC[C@H]2C(=O)O[C@H]([C@H](C)C[C@@H]2CC[C@@H](OC(=O)C(C)(CO)CO)[C@H](OC)C2)CC(=O)[C@H](C)/C=C(\C)[C@@H](O)[C@@H](OC)C(=O)[C@H](C)C[C@H](C)/C=C/C=C/C=C/1C [TEMSIROLIMUS] | > 30 µM (inactive) | > 30 µM (inactive) | > 30 µM (inactive) | > 30 µM (inactive) | > 30 µM (inactive) | > 30 µM (inactive) | > 30 µM (inactive) | > 30 µM (inactive) | > 30 µM (inactive) | > 30 µM (inactive) | > 30 µM (inactive) | > 30 µM (inactive) | > 30 µM (inactive) | > 30 µM (inactive) |
| O=C(Cc1ccc(-c2ccc(OCCN3CCOCC3)cc2)cn1)NCc1ccccc1 [TIRBANIBULIN] | > 30 µM (inactive) | > 30 µM (inactive) | > 30 µM (inactive) | > 30 µM (inactive) | > 30 µM (inactive) | > 30 µM (inactive) | > 30 µM (inactive) | > 30 µM (inactive) | > 30 µM (inactive) | > 30 µM (inactive) | > 30 µM (inactive) | > 30 µM (inactive) | > 30 µM (inactive) | > 30 µM (inactive) |

Next, values leading:

| Kd (Myosin-10) | Kd (Actin-related protein 2) | Kd [1] | Kd [2] | Kd [3] | Kd [4] | Kd [5] | Kd [6] | Kd (Aurora kinase B) | Kd [7] | Kd [8] | Kd [9] | Kd [10] | Kd [11] | Compound |
| --- | --- | --- | --- | --- | --- | --- | --- | --- | --- | --- | --- | --- | --- | --- |
| > 30 µM (inactive) | > 30 µM (inactive) | > 30 µM (inactive) | > 30 µM (inactive) | > 30 µM (inactive) | > 30 µM (inactive) | > 30 µM (inactive) | > 30 µM (inactive) | > 30 µM (inactive) | > 30 µM (inactive) | > 30 µM (inactive) | > 30 µM (inactive) | > 30 µM (inactive) | > 30 µM (inactive) | C[C@@H](N)c1ccc(C(=O)Nc2ccnc3[nH]ccc23)cc1 [Y-39983] |
| > 30 µM (inactive) | > 30 µM (inactive) | 0.473 µM (active) | > 30 µM (inactive) | > 30 µM (inactive) | > 30 µM (inactive) | > 30 µM (inactive) | > 30 µM (inactive) | > 30 µM (inactive) | > 30 µM (inactive) | > 30 µM (inactive) | > 30 µM (inactive) | > 30 µM (inactive) | 5.63 µM (active) | CN1C/C=C/CCOc2cccc(c2)-c2ccnc(n2)Nc2cccc(c2)C1 [ZOTIRACICLIB] |
